# From PMC7281280, “Is the Way to Fight Cancer Paved with Gold? Metal-Based Carbene Complexes with Multiple and Fascinating Biological Features” (Pharmaceuticals, 2020)
# What was measured:
# [1] = target: T1, human topoisomerase I (hTopo I) (Homo sapiens, UniProt P11387); test: Human topoisomerase I relaxation assay; assay type: biochemical; details: 1 μM
# T1 construct: purchased TopoGEN, Port Orange, FL, USA
# T1 sequence (P11387 1-765): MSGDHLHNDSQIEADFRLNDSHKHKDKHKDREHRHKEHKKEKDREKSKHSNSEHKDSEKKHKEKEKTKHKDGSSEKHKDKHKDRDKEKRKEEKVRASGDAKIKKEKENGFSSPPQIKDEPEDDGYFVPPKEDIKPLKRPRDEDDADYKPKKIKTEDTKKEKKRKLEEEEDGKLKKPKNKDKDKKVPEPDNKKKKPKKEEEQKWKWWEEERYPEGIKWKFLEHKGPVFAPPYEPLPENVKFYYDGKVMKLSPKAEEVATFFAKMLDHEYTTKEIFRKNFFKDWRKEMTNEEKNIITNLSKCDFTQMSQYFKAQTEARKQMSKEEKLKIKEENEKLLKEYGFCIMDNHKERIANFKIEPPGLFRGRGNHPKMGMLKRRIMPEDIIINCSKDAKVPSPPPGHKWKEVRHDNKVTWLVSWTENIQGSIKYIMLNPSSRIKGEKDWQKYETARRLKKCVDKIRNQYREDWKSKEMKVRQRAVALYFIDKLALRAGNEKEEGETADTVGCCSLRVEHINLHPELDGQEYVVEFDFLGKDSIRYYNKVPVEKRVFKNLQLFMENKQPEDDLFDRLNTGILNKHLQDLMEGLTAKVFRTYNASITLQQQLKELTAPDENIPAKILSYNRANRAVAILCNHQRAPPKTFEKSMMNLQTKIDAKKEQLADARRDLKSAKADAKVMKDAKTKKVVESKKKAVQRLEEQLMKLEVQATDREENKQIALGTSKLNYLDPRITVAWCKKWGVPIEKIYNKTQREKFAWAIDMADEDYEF
# Description: Topoisomerases are essential enzymes involved in DNA metabolism, because of their ability to cause temporary DNA strand breakage, and tightly involved, if overexpressed, in cancer development.
# hTopo I relaxation assays have been performed in a final volume of […], as reported by Iacopetta et al., incubating […] of supercoiled plasmid pHOT1 in Tris-EDTA (TE) buffer (TopoGEN, Port Orange, FL, USA) with tested compounds and recombinant hTopo I (2 units) (TopoGEN, Port Orange, FL, USA) for 1h at 37 °C. The obtained solution has been loaded in a 1% agarose gel containing 1× Tris-acetate-EDTA (TAE) buffer without ethidium bromide (EB). Agarose gel has been stained using 1× TAE buffer with EB ([…]) for 30 min and after washed with distilled water for 15 min. At the end, it has been visualized by using a ultraviolet (UV) transilluminator. The experiment was performed in triplicate.
# Figure 7 hTopoI assay.
# [2] = target: T2, human topoisomerase II (hTopo II) (Homo sapiens, UniProt P11388); test: Human topoisomerase II decatenation assay; assay type: biochemical; details: 1 μM
# T2 construct: purchased topoGEN, Port Orange, FL, USA
# Description: Decatenated and linear kDNA (Figure 8, lanes 1 and 2) are used as markers.
# hTopo II decatenation assays were performed in a final volume of […], as reported by Iacopetta et al., using […] of kinetoplast DNA (kDNA) (topoGEN, Port Orange, FL, USA), tested compounds and 3 units of hTopo II (topoGEN, Port Orange, FL, USA). The reaction products were loaded in an agarose gel with EB. At the end, the gel was washed with distilled water and analyzed using a UV transilluminator. The experiment was repeated three times.
# Lane 1 and 2, decatenated and linear kDNA, respectively.
# tubulin = test: In vitro tubulin-polymerization assay (turbidity at 350 nm); assay type: biochemical; details: 10 µM
# Description: Tubulin-polymerization inihibition was measured using in vitro Tubulin-Polymerization Assay Kit purchased fromEMD Millipore Corporation. Polymerization reactions occur in 70 µL final volumes, of which 60 µL is the 60 µM tubulin in 1 × PB-GTP and 10 µL is the test substance dissolved in 1 × PB-GTP. […] These reactives were combined in 96-well plate on ice. After the plate was transferred into the spectrophotometer pre-warmed at 37 °C and the turbidity variation was measured every 30 s at 350 nm for 90 min. The plate was shaked for 10 s before each measurement. Turbidity (absorbance) readings were used to calculate the extent of polymerization [% inhibition = (1−A350 sample/A350 control) × 100].
# Figure 4 Tubulin-polymerization assay. […] Two positive control molecules, Paclitaxel and Vinblastine, were used as tubulin-stabilizing and tubulin-destabilizing agents, respectively. DMSO was used as a negative control. Assembly of tubulin into microtubules was determined by measuring the turbidity at 350 nm for 3600 s at 37 °C. All the compounds were used at a concentration of 10 μM.
# HeLa cells = test: Immunofluorescence of microtubules, HeLa; assay type: cell-based, human; details: at IC50 value, 24 h
# Description: Cells were grown on glass coverslips in full media, then serum-deprived for 24 h and exposed to compounds for 24 h (concentration equal to its IC50 value). Then, the cells after PBS-washed, were fixed with cold methanol (15 min/−20 °C) and incubated with primary antibody, diluted in blocking solution (4 °C/overnight), as previously described. The mouse anti-β-Actin (69879) and the rabbit anti-β tubulin (9104) were purchased from Santa Cruz Biotechnology and used at 1:100 dilution. Coverslips were then washed 3 times with PBS, then fixed cells were incubated with the secondary antibody Alexa Fluor® 568 conjugate goat-anti-mouse and Alexa Fluor® 488 conjugate goat-anti-rabbit (1:500, Thermo Fisher Scientific, Waltham, MA, USA). Nuclei were stained using DAPI (Sigma–Aldrich, Mila, Italy) for 10 min at a concentration of 0.2 μg/mL then washed 3 times with PBS. Fluorescence was detected using a fluorescence microscope (Leica DM 6000). LAS-X software was used to acquire and process all images.
# Figure 6 Immunofluorescence studies. HeLa cells were treated with AuL4, Vinblastine, Paclitaxel (used at their IC50 values) or with a vehicle (CTRL) for 24 h. After treatment, the cells were methanol fixed, incubated with primary and secondary antibodies, stained with DAPI and observed and imaged under the inverted fluorescence microscope at 20× magnification (see Materials and methods). […] Panels A: DAPI, excitation/emission wavelength 350 nm/460 nm; panels B: β-tubulin (Alexa Fluor® 488) excitation/emission wavelength 490 nm/515 nm; panels C show a merge. Representative fields are shown.
# T2 sequence (P11388 whole entry): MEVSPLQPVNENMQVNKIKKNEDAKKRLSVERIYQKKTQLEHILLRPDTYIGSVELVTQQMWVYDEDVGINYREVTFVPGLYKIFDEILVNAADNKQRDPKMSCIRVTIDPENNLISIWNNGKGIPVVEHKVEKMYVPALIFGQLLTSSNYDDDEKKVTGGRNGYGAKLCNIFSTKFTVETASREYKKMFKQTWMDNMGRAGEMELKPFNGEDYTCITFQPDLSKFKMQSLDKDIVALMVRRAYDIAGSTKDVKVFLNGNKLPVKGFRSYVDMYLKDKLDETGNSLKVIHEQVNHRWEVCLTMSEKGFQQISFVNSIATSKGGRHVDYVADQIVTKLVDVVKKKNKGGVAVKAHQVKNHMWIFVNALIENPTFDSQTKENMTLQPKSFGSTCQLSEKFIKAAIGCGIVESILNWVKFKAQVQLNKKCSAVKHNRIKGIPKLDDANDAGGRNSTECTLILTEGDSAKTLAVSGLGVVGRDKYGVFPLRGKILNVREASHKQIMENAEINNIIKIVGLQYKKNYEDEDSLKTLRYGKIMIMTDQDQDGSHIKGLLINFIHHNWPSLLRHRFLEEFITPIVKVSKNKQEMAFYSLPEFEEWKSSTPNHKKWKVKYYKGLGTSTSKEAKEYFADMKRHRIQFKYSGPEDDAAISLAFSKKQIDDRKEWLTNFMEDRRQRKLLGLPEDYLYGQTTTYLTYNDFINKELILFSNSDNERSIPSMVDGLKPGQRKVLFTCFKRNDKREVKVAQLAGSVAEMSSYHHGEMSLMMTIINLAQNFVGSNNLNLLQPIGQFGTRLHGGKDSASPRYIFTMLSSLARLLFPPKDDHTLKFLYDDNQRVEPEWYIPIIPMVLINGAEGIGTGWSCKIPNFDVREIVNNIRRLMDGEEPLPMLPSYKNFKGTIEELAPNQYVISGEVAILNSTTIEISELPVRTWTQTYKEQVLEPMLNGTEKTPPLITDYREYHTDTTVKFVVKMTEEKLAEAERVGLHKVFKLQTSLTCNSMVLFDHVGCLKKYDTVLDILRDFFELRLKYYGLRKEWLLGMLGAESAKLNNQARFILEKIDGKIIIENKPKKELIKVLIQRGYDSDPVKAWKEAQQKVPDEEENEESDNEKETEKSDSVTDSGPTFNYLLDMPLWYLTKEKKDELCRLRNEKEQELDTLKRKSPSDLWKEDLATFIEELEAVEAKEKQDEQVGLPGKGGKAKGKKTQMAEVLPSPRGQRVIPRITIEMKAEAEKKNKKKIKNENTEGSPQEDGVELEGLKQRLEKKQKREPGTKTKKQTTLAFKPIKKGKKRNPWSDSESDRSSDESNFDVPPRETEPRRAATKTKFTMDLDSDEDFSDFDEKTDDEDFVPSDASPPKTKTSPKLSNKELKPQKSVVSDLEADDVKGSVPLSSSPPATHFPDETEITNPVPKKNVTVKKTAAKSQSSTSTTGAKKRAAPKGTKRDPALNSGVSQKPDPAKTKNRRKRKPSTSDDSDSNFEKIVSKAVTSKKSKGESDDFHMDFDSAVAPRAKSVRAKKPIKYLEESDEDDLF
structure (smiles),measurement,setting,value
"C[n+]1c(Cl)c(Cl)n(C2CCCC2O)[c]1[Au-][c]1n(C2CCCC2O)c(Cl)c(Cl)[n+]1C.[Cl][Au-][Cl] (racemic) [AuL4, bis-[4,5-dichloro-(N-methyl-N’(cyclopentane-2ol)-imidazole-2-ylidine)gold(I)]^+[dichloro-gold]^−]",inhibition of hTopo I supercoil relaxing activity,[1],totally inhibition
same,inhibition of hTopo II decatenation activity,[2],total blockade of hTopoII activity
same,effect on tubulin-polymerization reaction,tubulin,seems not to hamper the tubulin-polymerization reaction
same,final optical density value at 350 nm (OD350),"tubulin; 37 °C, vehicle (DMSO) about 0.43",slightly higher than that of DMSO reaction
same,"effect on microtubule network, HeLa",HeLa cells,paclitaxel-like behavior
